Results: patent publication US8829014B2, “Thiazole and thiophene analogues, and their use in treating autoimmune diseases and cancers” (Board of Supervisors of Louisiana State University and …, priority 2006, dated 2014)

Columns and labels:
NF-κB = NF-κB inhibitor screen: basal NF-κB-dependent luciferase expression in HEK/NF-κB cell line; assay type: cell-based; settings: 1 uM, determined as described in Example 398; for inhibition at 1 µM: read-out: NFkB inhibition @ 1 uM
Text: Development of NF-κB and AP-1 Screens: Two HEK293 cell lines were purchased from Panomics. One cell line was stably transfected with a plasmid in which luciferase expression is regulated by six copies of the NF-κB transcriptional element (5′-[…]-3′); and the other cell line was stably transfected with a plasmid in which luciferase expression is regulated by three copies of the AP-1 transcriptional element (TGACTAA). To test the biological activity of the promoters, the HEK/NF-κB cell line was stimulated with TNF-α (20 ng/ml) for 24 hours, and the HEK/AP-1 cell line was stimulated with PMA (10 ng/ml) for 24 hours. […] In addition, a pyrimidine carboxyimide that had previously been shown (ref. 58) to be an inhibitor of transcription mediated by NF-κB and AP-1 reduced luciferase activity by approximately 40% in each of the NF-κB and AP-1 cell lines.
The above two assays analyzed the effects of the compounds on post-transcriptional gene regulation, which is known to play a key role in cancer and inflammation. By contrast, the NF-κB assay and the following assay (AP-1) test whether the compounds act at the transcriptional level. Thirty-nine representative compounds were screened in an HEK/NF-κB cell line. HEK cells were stably transfected with a plasmid expressing luciferase under the control of the NF-κB promoter. These transfected cells were plated on a 96-well plate. As above, initial screening was carried out at 1.0 μM by adding compound in DMSO (0.3%) twenty-four hours after plating. Each compound was added to each of triplicate wells. DMSO (0.3%) was added to one set of wells as a control. Luciferase activity was determined using Promega's Brite-Glo kit, and the mean for each sample was normalized to that for DMSO.
The fourteen representative compounds identified in the eIF4E screen as interesting (Numbered 2, 3, 4, 6, 8, 11, 15, 20, 21, 24, 25, 32, 33, and 35) were then tested for luciferase activity in a six-point dose response (10 nM, 33 nM, 100 nM, 330 nM, 1000 nM, and 3300 nM). Screening was carried out as described above by monitoring the effects of the compounds on basal NF-κB-dependent luciferase expression. Each dose was used out in triplicate, and repeated between two and four times. Results were normalized by the average expression level at the lowest concentration level, as described above.

AP-1 = AP-1 inhibitor screen: basal AP-1-dependent luciferase expression in HEK/AP-1 cell line; assay type: cell-based; settings: for AP-1 inhibition @ 1 uM / inhibition at 1 µM: determined as described in Example 398; for inhibition at 1 µM: AP1
Text: Development of NF-κB and AP-1 Screens: Two HEK293 cell lines were purchased from Panomics. One cell line was stably transfected with a plasmid in which luciferase expression is regulated by six copies of the NF-κB transcriptional element (5′-[…]-3′); and the other cell line was stably transfected with a plasmid in which luciferase expression is regulated by three copies of the AP-1 transcriptional element (TGACTAA). To test the biological activity of the promoters, the HEK/NF-κB cell line was stimulated with TNF-α (20 ng/ml) for 24 hours, and the HEK/AP-1 cell line was stimulated with PMA (10 ng/ml) for 24 hours.
HEK cells were stably transfected with a plasmid expressing luciferase under the control of the AP-1 promoter. The transfected cells were plated on a 96-well plate for 24 hr. Then 1.0 μM of each compound in DMSO (0.3%) was added to triplicate wells and incubated for 48 hr. DMSO (0.3%) was added to one set of triplicate wells as a control. Luciferase activity was determined using Promega's Brite-Glo kit, and the mean for each sample was normalized to that for DMSO.
Screening was carried out as described above, monitoring the compounds' effects on basal AP-1-dependent luciferase expression. Each dose-response experiment was carried out in triplicate and repeated between two and four times.

carageenan-induced edema = assay: Carrageenan-induced rat paw edema test (anti-inflammatory activity); assay type: in vivo, Sprague-Dawley rats; design: % Protection: concentration or dose not given beside the values; settings: carrageenan-induced rat paw edema, defined in Example 397; for inhibition in vivo at 50 mg/kg: Rattus norvegicus, po, 3 h, read-out: % Protection
Outline: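 Edema was raised by sub-plantar injection of 1% carrageenan into the right hind paw, 1 h after dosing 18 h-fasted male/female Sprague-Dawley rats (150-250 g) with 50 mg/kg p.o. in 0.1% CMC. Swelling was measured by displacement 3 h later and expressed as % protection against saline control.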

| Compound | NFkB inhibition @ 1 uM (NF-κB) | AP-1 inhibition @ 1 uM (AP-1) | % Protection (carageenan-induced edema) [%] | inhibition in vivo at 50 mg/kg (carageenan-induced edema) [%] | inhibition at 1 µM (NF-κB) [%] | inhibition at 1 µM (AP-1) [%] | basal AP-1-dependent luciferase, six-point dose response (AP-1; 10 nM-3300 nM (FIG. 14)) |
| --- | --- | --- | --- | --- | --- | --- | --- |
| 2-[2-(1-Furan-2-yl-vinylamino)-4-phenyl-thiazol-5-yl]-3-(4-Chloro-phenyl)-3H-quinazolin-4-one [Example 255] | 0 | 7 |  |  |  |  |  |
| 2-[2-(1-Furan-2-yl-vinylamino)-4-phenyl-thiazol-5-yl]-3-(4-acetyl-phenyl)-3H-quinazolin-4-one [Example 270] | 11 | 18 | 20 |  |  |  |  |
| 2-[2-(1-Furan-2-yl-vinylamino)-4-phenyl-thiazol-5-yl]-3-(4-methoxyphenyl)-3H-quinazolin-4-one [Example 224] | −24 | 2 | 79 |  |  |  |  |
| 2-[2-(1-Furan-2-yl-vinylamino)-4-phenyl-thiazol-5-yl]-3-phenyl-3H-quinazolin-4-one [Example 164] | 2 | 53 | 66 |  |  |  |  |
| CCOC(=O)Nc1nc(C)c(-c2nc3ccccc3c(=O)n2-c2ccccc2)s1 [Example 154, (4-Methyl-5-(4-oxo-3-phenyl-3,4-dihydro-quinazolin-2-yl)-thiazol-2-yl)-carbamic acid ethyl ester] |  |  |  | 12 | 19 | -13 |  |
| COC(=O)Nc1nc(C)c(-c2nc3ccccc3c(=O)n2-c2ccccc2)s1 [Example 155, (4-Methyl-5-(4-oxo-3-phenyl-3,4-dihydro-quinazolin-2-yl)-thiazol-2-yl)-carbamic acid methyl ester] |  |  |  | 0 | 24 | -1 |  |
| Cc1nc(Nc2ccccc2)sc1-c1nc2ccccc2c(=O)n1-c1ccccc1 [Example 157, 2-(4-Methyl-2-phenylamino-thiazol-5-yl)-3-phenyl-3H-quinazolin-4-one] |  |  |  | 12 | 25 | 16 |  |
| Cc1nc(Nc2ccc(Cl)cc2)sc1-c1nc2ccccc2c(=O)n1-c1ccccc1 [Example 158, 2-[2-(4-Chlorophenylamino)-4-methyl-thiazol-5-yl]-3-phenyl-3H-quinazolin-4-one] |  |  |  | 4 | -9 | -20 |  |
| O=c1c2ccccc2nc(-c2sc(Nc3ccccc3)nc2-c2ccccc2)n1-c1ccccc1 [Example 161, 3-Phenyl-2-(4-phenyl-2-phenylamino-thiazol-5-yl)-3H-quinazolin-4-one] |  |  |  | 60 | 80 | 7 |  |
| O=C(Nc1nc(-c2ccccc2)c(-c2nc3ccccc3c(=O)n2-c2ccccc2)s1)c1ccccc1 [Example 162] | 58 | 17 | 87 |  |  |  |  |
| Cc1ccc(C(=O)Nc2nc(-c3ccccc3)c(-c3nc4ccccc4c(=O)n3-c3ccccc3)s2)cc1 [Example 163, 4-Methyl-N-[5-(4-oxo-3-phenyl-3,4-dihydroquinazolin-2-yl)-4-phenyl-thiazol-2-yl]-benzamide] |  |  |  | 77 | 88 | 68 |  |
| O=c1c2ccccc2nc(-c2sc(Nc3ccc(Cl)cc3)nc2-c2ccccc2)n1-c1ccccc1 [Example 165, 2-[2-(4-Chloro-phenylamino)-4-phenyl-thiazol-5-yl]-3-phenyl-3H-quinazolin-4-one] |  |  |  | 87 | -47 | 27 | substantial activity at submicromolar concentrations |
| CCOC(=O)Nc1nc(C)c(-c2nc3ccccc3c(=O)n2-c2ccccc2C)s1 [Example 166, [4-Methyl-5-(4-oxo-3-o-tolyl-3,4-dihidro-quinazolin-2-yl)-thiazol-2-yl]-carbamic acid ethyl ester] | 21 | 14 |  |  |  |  |  |
| CNc1nc(C)c(-c2nc3ccccc3c(=O)n2-c2ccccc2C)s1 [Example 168] | 16 | 67 | 35 |  |  |  |  |
| Cc1ccccc1-n1c(-c2sc(Nc3ccccc3)nc2C)nc2ccccc2c1=O [Example 169, 2-(4-Methyl-2-phenylamino-thiazol-5-yl)-3-o-tolyl-3H-quinazolin-4-one] |  |  |  | 42 | 21 | 60 |  |
| CCOC(=O)Nc1nc(-c2ccccc2)c(-c2nc3ccccc3c(=O)n2-c2ccccc2C)s1 [Example 171, [5-(4-Oxo-3-o-tolyl-3,4-dihydro-quinazolin-2-yl)-4-phenyl-thiazol-2-yl]-carbamic acid ethyl ester] |  |  |  | 52 | 23 | 52 |  |
| Cc1cccc(-n2c(-c3sc(Nc4ccc(Cl)cc4)nc3-c3ccccc3)nc3ccccc3c2=O)c1 [Example 189, 2-[2-(4-Chloro-phenylamino)-4-phenyl-thiazol-5-yl]-3-m-tolyl-3H-quinazolin-4-one] |  |  |  | 38 | -4 | 83 |  |
| Cc1ccc(-n2c(-c3sc(Nc4ccc(Cl)cc4)nc3C)nc3ccccc3c2=O)cc1 [Example 192, 2-[2-(4-Chlorophenylamino)-4-methyl-thiazol-5-yl]-3-p-tolyl-3H-quinazolin-4-one] |  |  |  | 37 | 12 | 2 |  |
| CCOC(=O)Nc1nc(-c2ccccc2)c(-c2nc3ccccc3c(=O)n2-c2ccc(C)cc2)s1 [Example 193, [5-(4-Oxo-3-p-tolyl-3,4-dihydro-quinazolin-2-yl)-4-phenyl-thiazol-2-yl]-carbamic acid ethyl ester] |  |  |  | 31 | 2 | 11 |  |
| Cc1ccc(-n2c(-c3sc(Nc4ccc(Cl)cc4)nc3-c3ccccc3)nc3ccccc3c2=O)cc1 [Example 200, 2-[2-(4-Chloro-phenylamino)-4-phenyl-thiazol-5-yl]-3-p-tolyl-3H-quinazolin-4-one] |  |  |  | 56 | -16 | 2 |  |
| COc1ccc(-n2c(-c3sc(NC(=O)c4ccc(C)cc4)nc3-c3ccccc3)nc3ccccc3c2=O)cc1 [Example 223, 4-Methyl-N-[5-(4-oxo-3-(4-methoxyphenyl)-3,4-dihydroquinazolin-2-yl)-4-phenyl-thiazol-2-yl]-benzamide] |  |  |  |  | -24 | -28 |  |
| Cc1ccc(Nc2nc(-c3ccccc3)c(-c3nc4ccccc4c(=O)n3-c3ccc(Cl)cc3)s2)cc1 [Example 257, 2-[2-(4-Methyl-phenylamino)-4-phenyl-thiazol-5-yl]-3-(4-Chloro-phenyl)-3H-quinazolin-4-one] |  |  |  |  | -10 | -51 |  |
| COC(=O)Nc1nc(-c2ccccc2)c(-c2nc3ccccc3c(=O)n2-c2ccc(C(C)=O)cc2)s1 [Example 265, [5-(4-Oxo-3-(4-acetyl-phenyl)-3,4-dihidro-quinazolin-2-yl)-4-phenyl-thiazol-2-yl]-carbamic acid methyl ester] | 0 | 16 |  |  |  |  |  |
| {5-[3-(3-Methoxy-phenyl)-4-oxo-3,4-dihydro-quinazolin-yl]-thiazol-2-yl}-carbamic acid ethyl ester [Example 209] | 29 | 5 |  |  |  |  |  |
